Experimental data: US7915393B2 (Corixa Corporation, priority 2001, dated 2011)
Marks after values point to notes of the source that are not given here.

How the values were obtained:
[1] = system: T cells of immunized B6 mice; assay: Proliferative T cell responses of immunized mice, thymidine incorporation assay; format: in vivo; settings: for stimulation index (SI), proliferative T cell response: mice immunized with WT1 peptides, thymidine incorporation (FIGS. 5A-5C)
Experimental: Peptides were dissolved in 1 ml sterile water for injection, and B6 mice were immunized 3 times at time intervals of three weeks. Adjuvants used were CFA/IFA, GM-CSF, and MONTANIDE®. […] In particular, lymphocytes were cultured in 96-well plates at 2×10^5 cells per well with 4×10^5 irradiated (3000 rads) syngeneic spleen cells and the designated peptide.

[2] = system: targets incubated with WT1 peptides (EL-4) and WT1 positive tumor cells (TRAMP-C, BLK-SV40); assay: CTL from mice immunized with WT1 peptides, chromium release assay; format: in vivo, B6 mice; settings: for generation of peptide specific CTL following immunization: spleen cells stimulated in vitro with peptide; for generation of peptide specific CTL following immunization / lysis of WT1 positive tumor cells by peptide specific CTL: chromium release; for lysis of WT1 positive tumor cells by peptide specific CTL: WT1 positive tumor cell lines (TRAMP-C, BLK-SV40)
Experimental: CTL were evaluated with a standard chromium release assay (Chen et al., Cancer Res. 54:1065-1070, 1994). 10^6 target cells were incubated at 37° C. with 150 μCi of sodium ^51Cr for 90 minutes, in the presence or absence of specific peptides. Cells were washed three times and resuspended in RPMI with 5% fetal bovine serum. For the assay, 10^4 51Cr-labeled target cells were incubated with different concentrations of effector cells in a final volume of 200 μl in U-bottomed 96-well plates. Supernatants were removed after 4 to 7 hours at 37° C., and the percentage specific lysis was determined by the formula: % specific lysis=100×(experimental release−spontaneous release)/(maximum release−spontaneous release).
P117-139, a peptide with motifs appropriate for binding to class I and class II MHC, was identified as described above using TSITES and BIMAS HLA peptide binding prediction analyses. Mice were immunized as described in Example 3. […] CTL were evaluated with a standard chromium release assay.

[3] = system: WT1-specific CD8+ T cell clone and T cell line; assay: HLA-A2 peptide-MHC tetramer staining of WT1 specific T cells (flow cytometry); format: cell-based, human
[4] = Clinical chemistry and hematology analysis, WT1 dose titration study; format: in vivo; settings: mice immunized with WT1 protein
Text: Special emphasis was put on evaluation of potential hematopoietic toxicity.

[5] = system: WT1 specific CD8+ T-cell clone; assay: IFN-γ ELISPOT recognition by human WT1 specific CD8+ T-cell clone (whole gene priming); format: cell-based; settings: HLA-A2 restricted clone
[6] = system: CD4 cells of splenocytes; assay: Intracellular interferon-gamma staining of CD4 cells (FACS) after immunization with WT-1 protein constructs; format: in vivo; settings: C57BL/6 mice
Experimental: Groups of four C57BL/6 mice were immunized subcutaneously with 20 μg WT-1 proteins: WT-1-F or WT-1 full length (FL), with Ra12, HIS or TAT fusions. Immunizations were performed at weeks 0, 3 and 9, and spleens were harvested at week 11. Splenocytes were then stimulated in vitro for 6 hours with medium alone, with a 15-mer peptide “p32” ([…], amino acids 125-139 of WT-1; found within the p117-139 peptide set forth in SEQ ID NO:2), with the DC2.4-WT-1/LAMP cell line, or with rRa12. CD4 cells were then stained for intracellular interferon-gamma and quantified by FACS analysis. A portion of these splenocytes were then stimulated in vitro for 8 days, after which CD4+ IFN+ cells were enumerated. After the 6 hour stimulation with p32, 0.33% of CD4-positive cells were positive for intracellular IFN-gamma staining in mice immunized with the truncated N-terminal construct rWT1-F-TAT. By contrast, only 0.10% of CD4-positive cells stained positive for intracellular IFN-gamma in mice immunized with rWT1-FL-TAT. […] By contrast, 0.24% of CD4-positive cells from mice immunized with the full-length WT1-TAT construct stained positive for intracellular IFN-gamma.

[7] = system: mouse B6 class I antigens (D^b or K^b molecules on the surface of RMA-S cells); assay: Peptide binding to C57Bl/6 murine class I MHC using RMA-S cells (flow cytometry); format: cell-based; settings: 9-mer peptides within p117-139
Experimental: In brief, RMA-S cells were cultured for 7 hours at 26° C. in complete medium supplemented with 1% FCS. A total of 10^6 RMA-S cells were added into each well of a 24-well plate and incubated either alone or with the designated peptide (25 ug/ml) for 16 hours at 26° C. and additional 3 hours at 37° C. in complete medium. Cells were then washed three times and stained with fluorescein isothiocyanate-conjugated anti D^b or anti-K^b antibody (PharMingen, San Diego, Calif.). Labeled cells were washed twice, resuspended and fixed in 500 ul of PBS with 1% paraformaldehyde and analyzed for fluorescence intensity in a flow cytometer (Becton-Dickinson FACSCALIBUR™). The percentage of increase of D^b or K^b molecules on the surface of the RMA-S cells was measured by increased mean fluorescent intensity of cells incubated with peptide compared with that of cells incubated in medium alone.

[8] = system: DC2.4 A2/Kb cells pulsed with peptides; assay: Identification of CTL epitope: chromium release with peptide pulsed DC2.4 A2/Kb cells; format: in vivo; settings: HLA-A2/Kb transgenic mice
[9] = system: human cells; assay: Cellular cytotoxicity of WT1-ubiquitin fusion expressed in human cells; format: cell-based; settings: compared with native WT1
Text: The human ubiquitin open reading frame (SEQ ID NO:384) was mutated such that the nucleotides encoding the last amino acid encode an alanine instead of a glycine. […] The G->A mutation prevents co-translational cleavage of the […] protein by the proteases that normally process poly-ubiquitin during translation. The DNA and predicted amino acid sequence for the resulting construct are set forth in SEQ ID NOs:385 and 410, respectively. […] The resulting protein is predicted to be targeted to the proteosome by virtue of the added ubiquitin molecule.

## RDLNALLPAVPSLGGGG [p6-22]
[1]
  stimulation index (SI), proliferative T cell response: 2.3

## p136-144: 9-mer class I MHC binding peptide; human or mouse form not stated at this place (SCLESQPAI; UniProt P19544 136-144, looked up, fragment)
[2]
  generation of peptide specific CTL following immunization: CTL were generated

## LDFAPPGAS
[3]
  staining of the WT1-specific CD8+ T cell clone by HLA-A2 tetramers incubated with an excess of the peptide: did not stain the CD8+ T cell clone

## WT1 protein: WT1 protein used for immunization in a multiple dose titration in mice
MPL-SE as adjuvant, doses 25 μg, 100 μg to 1000 μg WT1 protein, female C57/B6 mice (FIG. 19)
  WT1-specific antibody response: strong WT1-specific antibody response
MPL-SE as adjuvant, doses 25 μg, 100 μg to 1000 μg WT1 protein, female C57/B6 mice (FIG. 20)
  cellular T-cell responses: cellular T-cell responses
Mice immunized with WT1 protein
  myeloid/erythroid ratio in sternum and femur marrow: normal
mice, multiple dose titration
  systemic histopathological or toxicological effects of immunization: No systemic histopathological or toxicological effects
[4]
  blood cell counts and blood chemistry (BUN, creatinine, bilirubin, albumin, globulin): within the normal range

## GATLKGVAAGSSSSVKWTE [p244-262]
[1]; Vaccine A immunized mice, bulk lines, peptide 25 ug/ml, 96 hr (FIG. 6A)
  stimulation indices (SI), proliferative T cell response to the immunizing peptides: No proliferative response

## VLDFAPPGAS
[5]
  recognition by WT1 specific CD8+ T-cell clone (ELISPOT): specifically recognized

## rWT1-FL-TAT: full-length WT1 as TAT fusion
[6]; 20 μg s.c. weeks 0, 3 and 9, 6 hour stimulation with p32
  CD4-positive cells positive for intracellular IFN-gamma staining: 0.10%
[6]; 20 μg s.c., after the 8 day stimulation
  CD4+ cells with IFN-gamma staining: 0.24%

## NLYQMTSQL
[2]
  generation of peptide specific CTL following immunization: not

## NAPYLPSCL
[2]; EL-4 pulsed with peptide, E:T 25:1 (FIG. 13A)
  lysis of targets incubated with 9-mer peptide by CTL generated by immunization with p117-139: lysed targets
[2]; FIGS. 13B and 13C
  peptide specific lysis after restimulation of the p117-139 specific CTL line with the 9-mer: demonstrated peptide specific lysis
[2]
  lysis of WT1 positive tumor cells by peptide specific CTL: showed lysis of a WT1 positive tumor cell line
[7]
  binding to H-2^b class I molecules: bind to H-2^b class I molecules

## ALLPAVPSL
[2]
  generation of peptide specific CTL following immunization: peptide specific CTL lines were generated
[8]
  WT1 immunized animals with CTL responses to the peptide: 4 of 5

## WT1 p39-47: irrelevant HLA-A2 peptide used as tetramer control (DFAPPGASA; UniProt P19544 39-47, looked up, fragment)
[3]
  staining of the WT1-specific CD8+ T cell clone by HLA-A2 tetramers incubated with an excess of the peptide: did not stain the CD8+ T cell clone

## CMTWNQMNL
[2]
  lysis of WT1 positive tumor cells by peptide specific CTL: failed to lyse cell lines that expressed WT1 proteins
[2]; listed as p235-243
  generation of peptide specific CTL following immunization: peptide specific CTL lines were generated

## VLDFAPPGA
[5]
  recognition by WT1 specific CD8+ T-cell clone (ELISPOT): specifically recognized
[3]
  staining of the WT1-specific CD8+ T cell clone by HLA-A2 tetramers incubated with an excess of the peptide: specifically stained the CD8+ T cell clone

## WT1-Ubiquitin fusion: mutated (G->A) human ubiquitin fused upstream of a splice variant of human WT1
[9]
  cellular cytotoxicity when expressed in human cells: decreased cellular cytotoxicity

## SCLESQPAI
[2]
  generation of peptide specific CTL following immunization: peptide specific CTL lines were generated

## VRRVSGVAPTLVRS [Peptide P299-313]
[1]
  stimulation index (SI), proliferative T cell response: 3.3

## VLDFAPPGASAYGSL [peptide 10]
[5]
  recognition by WT1 specific CD8+ T-cell clone (ELISPOT): recognized

## QWAPVLDFAPPGASA [peptide 9]
[5]
  recognition by WT1 specific CD8+ T-cell clone (ELISPOT): recognized
